Experimental data taken from ChEMBL document CHEMBL5247586, “Discovery of fusidic acid derivatives as novel STING inhibitors for treatment of sepsis” (Eur J Med Chem, 2022).
Calls of active or inactive are those of the source. The calls are words filed in the database; no cut-off is given here.

Experiments:
[1] = Cmax in Sprague-Dawley rat administered intragastrically; assay type: ADME; set-up: route ig; details: in vivo, po
Mus musculus [2] = assay: Antiinflammatory activity in BALB/c mouse model of LPS induced sepsis assessed as inhibition of TNF-alpha production at 1.25 to 5 mg/kg, IG administered once a day for 3 days followed by LPS stimulation for 12 hrs starting from 2 hrs post last dose by qRT-PCR analysis; assay type: functional, organism-based; details: dose 1.25-5 mg/kg, time 86.0 hrs
[3] = Tmax in Sprague-Dawley rat administered intragastrically; assay type: ADME; details: in vivo, po, route ig
[4] = MRT(0 to infinity) in Sprague-Dawley rat administered intragastrically; assay type: ADME; details: in vivo, po, route ig
Mus musculus [5] = assay: (§1) Protective activity against LPS induced sepsis in BALB/c mouse model of acute liver injury assessed as reduction in ALP level in serum at 1.25 to 5 mg/kg, IG administered once a day for 3 days followed by LPS stimulation for 12 hrs starting from 2 hrs post last dose by ELISA; assay type: functional, organism-based; details: dose 1.25-5 mg/kg, time 86.0 hrs
[6] = Cytotoxicity against mouse RAW264.7 cells assessed as cell viability at 40 uM measured after 24 hrs by MTT assay relative to control; assay type: toxicity, cell-based; details: read-out: Activity
[7] = molecular target: T1, Inhibitor of nuclear factor kappa-B kinase subunit beta (Mus musculus) (UniProt O88351); assay: Inhibition of IkappaB phosphorylation in LPS-induced mouse RAW264.7 cells preincubated with compound for 2 hrs followed by LPS stimulation and measured after 6 hrs by Western blot analysis; assay type: cell-based; details: dose 0.5-2 µM, time 8.0 hrs
T1 sequence (whole entry): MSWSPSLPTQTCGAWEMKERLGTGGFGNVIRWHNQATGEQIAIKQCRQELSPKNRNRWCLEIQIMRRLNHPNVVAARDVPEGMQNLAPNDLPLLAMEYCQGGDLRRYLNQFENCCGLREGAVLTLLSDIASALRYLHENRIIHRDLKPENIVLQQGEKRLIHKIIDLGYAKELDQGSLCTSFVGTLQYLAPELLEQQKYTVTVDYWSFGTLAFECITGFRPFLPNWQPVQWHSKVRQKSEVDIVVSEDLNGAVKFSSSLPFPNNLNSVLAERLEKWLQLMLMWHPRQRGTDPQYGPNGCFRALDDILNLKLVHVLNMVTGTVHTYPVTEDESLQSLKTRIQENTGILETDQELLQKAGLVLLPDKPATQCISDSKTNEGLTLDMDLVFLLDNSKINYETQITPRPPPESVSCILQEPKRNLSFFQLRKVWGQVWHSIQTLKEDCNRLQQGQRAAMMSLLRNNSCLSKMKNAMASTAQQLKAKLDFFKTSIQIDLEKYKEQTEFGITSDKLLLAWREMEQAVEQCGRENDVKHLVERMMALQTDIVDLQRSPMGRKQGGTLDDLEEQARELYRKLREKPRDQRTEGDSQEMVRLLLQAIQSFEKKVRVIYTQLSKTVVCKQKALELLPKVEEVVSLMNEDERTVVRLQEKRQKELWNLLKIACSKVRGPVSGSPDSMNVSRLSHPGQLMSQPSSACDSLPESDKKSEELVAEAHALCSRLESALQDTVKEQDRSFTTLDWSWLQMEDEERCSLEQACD

RAW264.7 [8] = assay: Anti inflammatory activity in LPS-induced mouse RAW264.7 cells assessed as suppression of IFN- beta levels at 0.5 to 2 uM preincubated with compound for 2 hrs followed by LPS stimulation for 6 hrs by ELISA method; assay type: functional, cell-based; details: dose 0.5-2 µM, time 8.0 hrs
[9] = molecular target: T2, Interferon regulatory factor 3 (Mus musculus) (UniProt P70671); assay: Inhibition of IRF3 phosphorylation in LPS-induced mouse RAW264.7 cells preincubated with compound for 2 hrs followed by LPS stimulation and measured after 6 hrs by Western blot analysis; assay type: cell-based; details: dose 0.5-2 µM, time 8.0 hrs
T2 sequence (whole entry): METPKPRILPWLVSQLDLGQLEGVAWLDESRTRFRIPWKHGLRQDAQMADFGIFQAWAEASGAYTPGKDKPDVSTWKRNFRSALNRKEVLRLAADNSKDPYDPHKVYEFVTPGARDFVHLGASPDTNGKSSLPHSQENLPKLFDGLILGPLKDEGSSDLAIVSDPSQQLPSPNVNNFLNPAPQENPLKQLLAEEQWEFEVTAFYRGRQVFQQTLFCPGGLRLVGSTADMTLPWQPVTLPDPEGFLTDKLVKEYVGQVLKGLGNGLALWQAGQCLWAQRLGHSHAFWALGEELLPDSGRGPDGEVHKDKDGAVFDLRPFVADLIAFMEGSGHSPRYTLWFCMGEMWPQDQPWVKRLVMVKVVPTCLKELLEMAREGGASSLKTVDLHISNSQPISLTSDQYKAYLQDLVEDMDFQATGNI

Mus musculus [10] = assay: Protective activity against LPS induced sepsis in BALB/c mouse model of acute liver injury assessed as reduction in ALT level in serum at 1.25 to 5 mg/kg, IG administered once a day for 3 days followed by LPS stimulation for 12 hrs starting from 2 hrs post last dose by ELISA; assay type: functional, organism-based; details: dose 1.25-5 mg/kg, time 86.0 hrs
[11] = AUC(0 to t) in Sprague-Dawley rat administered intragastrically; assay type: ADME; set-up: route ig; details: in vivo, po
Mus musculus [12] = assay: as §1, with “inflammatory cell infiltration” for “ALP level in serum”, “hematoxylin and eosin staining based analysis” for “ELISA”; assay type: functional, organism-based; details: dose 1.25-5 mg/kg, time 86.0 hrs
RAW264.7 [13] = assay: Anti inflammatory activity in LPS-induced mouse RAW264.7 cells assessed as inhibition of NO production at 5 uM preincubated with compound for 2 hrs followed by LPS stimulation and measured after 24 hrs by griess reagent based assay relative to control; assay type: functional; details: time 26 hrs
[14] = molecular target: T3, Stimulator of interferon genes protein (Mus musculus) (UniProt Q3TBT3); assay: (§2) In vivo inhibition of STING in BALB/c mouse model of LPS induced sepsis assessed as inhibition of upregulation of phosphorylated IkappaB protein expression at 1.25 to 5 mg/kg, IG administered once a day for 3 days followed by LPS stimulation for 12 hrs starting from 2 hrs post last dose by Western blot analysis; assay type: functional, organism-based; details: dose 1.25-5 mg/kg, time 86.0 hrs
T3 sequence (whole entry): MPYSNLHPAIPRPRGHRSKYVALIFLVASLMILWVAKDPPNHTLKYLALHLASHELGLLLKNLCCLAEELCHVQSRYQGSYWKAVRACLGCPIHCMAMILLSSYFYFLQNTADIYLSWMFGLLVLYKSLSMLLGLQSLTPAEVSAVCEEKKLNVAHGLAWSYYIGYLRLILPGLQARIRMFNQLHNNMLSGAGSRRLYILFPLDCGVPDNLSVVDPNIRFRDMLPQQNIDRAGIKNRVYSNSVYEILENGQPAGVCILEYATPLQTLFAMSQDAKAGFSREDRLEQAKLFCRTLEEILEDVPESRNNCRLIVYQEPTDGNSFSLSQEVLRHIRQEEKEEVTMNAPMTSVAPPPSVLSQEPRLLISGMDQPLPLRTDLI

[15] = molecular target: T3, Stimulator of interferon genes protein (Mus musculus); assay: as §2, with “TBK1 […]” for “IkappaB protein”; assay type: functional, organism-based; details: dose 1.25-5 mg/kg, time 86.0 hrs
Mus musculus [16] = assay: Anti-sepsis activity against BALB/c mouse model of LPS induced sepsis assessed as reduction in STING protein expression in liver at 1.25 to 5 mg/kg, IG administered once a day for 3 days followed by LPS stimulation for 12 hrs starting from 2 hrs post last dose by Western blot analysis; assay type: functional, organism-based; details: dose 1.25-5 mg/kg, time 86.0 hrs
Mus musculus [17] = assay: as §1, with “improvement” for “reduction”, “swollen hepatocytes” for “ALP level in serum”, “hematoxylin and eosin staining based analysis” for “ELISA”; assay type: functional, organism-based; details: dose 1.25-5 mg/kg, time 86.0 hrs

- Cmax [1]: 66.5 ng/mL
- Tmax [3]: 1 h
- MRT inf [4]: 2.02 h
- inhibition [7]: Dose-Dependent Effect
- inhibition [9]: Dose-Dependent Effect
- AUC(0-t) [11]: 81.1 ng·h/mL
- inhibition [14]: Active
- inhibition [15]: Active
Structure (SMILES): C=CCONC(=O)CCSSCCC(=O)O[C@@H]1CC[C@@]2(C)[C@@H](CC[C@@]3(C)[C@H]2[C@H](O)C[C@H]2/C(=C(\CCC=C(C)C)C(=O)OCc4ccccc4)[C@@H](OC(C)=O)C[C@@]23C)[C@@H]1C
- inhibition (Mus musculus [2]): Active
- Activity (Mus musculus [5]): Active
- viability at 24 h, 40 µM [6]: 91.1%
- Activity (RAW264.7 [8]): Active
- Activity (Mus musculus [10]): Active
- Activity (Mus musculus [12]): Active
- inhibition at 5 µM (RAW264.7 [13]): 78.7%
- Activity (Mus musculus [16]): Active
- Activity (Mus musculus [17]): Active
